Legend:
[1] = tested on: carrageenan-induced edema; test: carrageenan edema test in rats; type: in vivo, rat (female Sprague-Dawley); conditions: Rattus norvegicus, po; 80 mg/kg p.o., 30 min before carrageenan; edema weight 3 h after, vs control; preliminary; read-out: Potentiation of the carrageenan edema, %
Text: Another test, in which the effect of a drug corresponds to the effects obtained in the tests mentioned above, and which can therefore also be used, is the well-established carrageenan edema test in rats (5). Comparative evaluation of compounds of the present invention in the three tests mentioned has shown that compounds which increase the extent of the delayed hypersensitivity reaction in the pertussis vaccine pleurisy test and in the adjuvant arthritis test also increase the extent of carrageenan-induced edema in the carrageenan edema test, thus providing a further tool for the determination of enhancement of cell-mediated immunity.
This example illustrates the effect of the compounds of the general formula I in the carrageenan edema test in rats.
A modification of a method described in (5) was used. Female Sprague-Dawleyrats weighing 110-120 g was used. At least 10 animals were used in each experimental group. Foot edema was induced by injecting carrageenan in 0.9% NaCl into the plantar surface of the right hind paw of the rats.
The substances suspended in aqueous methocel solution 10 ml/kg were administered intragastrically 30 minutes before the injection of carrageenan. The control groups were given methocel solution 10 ml/kg.
Three hours after carrageenan injection the animals were killed. The hind feet were cut off and weighed. The difference in weight of the injected right paw and the uninjected left paw was called edema weight.
The effect of the substances was assessed by the edema weight expressed in percent after comparison with the control groups.

[2] = tested on: delayed hypersensitivity reaction (pertussis vaccine pleurisy); test: pertussis vaccine pleurisy test in rats; type: in vivo, rat (male Sprague-Dawley); conditions: 10 mg/kg p.o.; for change in vivo at 10 mg/kg: Rattus norvegicus, po, 48 h, once daily day 10 to day 13, vs control, preliminary, read-out: Enhancement of the delayed hypersensitivity reaction assessed by the exudate vol.
Text: A useful test for the evaluation of the effect of chemical compounds on the immune system is the pertussis vaccine pleurisy test in rats. Compounds which enhance the response in this delayed hypersensitivity reaction are considered to stimulate cell-mediated immunity (4).
This example illustrates the effect of the compounds of the general formula I in the pertussis vaccine pleurisy test.
Pertussis vaccine pleurisy is a useful test for the evaluation of the effect of chemical compounds on the immune system. Compounds which enhance the response in this delayed hypersensitivity reaction are considered to stimulate cell-mediated immunity.
A modification of a method described in (4) was used. Male Sprague-Dawley rats weighing 250-275 g were used. At least ten animals were used in each group.
Equal volumes of Freund's incomplete adjuvant and a suspension of heat killed Bordetella pertussis organisms were mixed. To sensitize animals, day 0, 0.2 ml of a mixture containing 0.036×10^10 organisms/ml was injected into the dorsal surface of one hind paw and one forepaw.
The animals were challenged on day 12 with 0.1 ml of a mixture containing 0.25×10^10 organisms/ml that was injected intrapleurally. 48 hours after challenge, day 14, the volume of the exudate in the pleural cavity was measured.
The substances suspended in aqueous methocel solution 10 ml/kg were given intragastrically once daily from day 10 to day 13. The control groups were given methocel solution 10 ml/kg.
The effect of the substances was assessed by the exudate volume expressed in percent after comparison with the control groups.

| SMILES | significant enhancing effect in the pertussis vaccine pleurisy test [2] | further results |
| --- | --- | --- |
| O=C(Nc1ccccc1)c1c(O)c2ccccc2n(-c2ccccc2)c1=O [1:3, N-1-diphenyl-1,2-dihydro-4-hydroxy-2-oxo-quinoline-3-carboxamide] |  | change in vivo at 80 mg/kg [1]: 41% |
| Cn1c(=O)c(C(=O)Nc2ccc(O)cc2)c(O)c2ccccc21 [1:13, N-/4-hydroxyphenyl/-1,2-dihydro-4-hydroxy-1-methyl-2-oxo-quinoline-3-carboxamide] | significant enhancing effect |  |
| CC(C)Cn1c(=O)c(C(=O)Nc2ccccc2)c(O)c2ccccc21 [1:15, N-phenyl-1,2-dihydro-4-hydroxy-1-isobutyl-2-oxo-quinoline-3-carboxamide] |  | change in vivo at 80 mg/kg [1]: 30% |
| Cn1c(=O)c(C(=O)Nc2ccccc2)c(O)c2ccc(Cl)cc21 [1:17, N-phenyl-7-chloro-1,2-dihydro-4-hydroxy-1-methyl-2-oxo-quinoline-3-carboxamide] |  | change in vivo at 80 mg/kg [1]: 43% |
| Cn1c(=O)c(C(=O)Nc2ccccc2)c(O)c2cc(Cl)ccc21 [1:18, N-phenyl-6-chloro-1,2-dihydro-4-hydroxy-1-methyl-2-oxo-quinoline-3-carboxamide] |  | change in vivo at 80 mg/kg [1]: 36% |
| CNc1ccc(NC(=O)c2c(O)c3ccccc3n(C)c2=O)cc1 [1:21, N-/4-methylaminophenyl/-1,2-dihydro-4-hydroxy-1-methyl-2-oxo-quinoline-3-carboxamide] |  | change in vivo at 80 mg/kg [1]: 22% |
| CCN(CC)c1ccc(NC(=O)c2c(O)c3ccccc3n(C)c2=O)cc1 [1:23, N-/4-diethylaminophenyl/-1,2-dihydro-4-hydroxy-1-methyl-2-oxo-quinoline-3-carboxamide] |  | change in vivo at 80 mg/kg [1]: 29% |
| CCNc1ccc(NC(=O)c2c(O)c3ccccc3n(C)c2=O)cc1 [1:45, N-(4-ethylaminophenyl)-1,2-dihydro-4-hydroxy-1-methyl-2-oxo-quinoline-3-carboxamide] |  | change in vivo at 80 mg/kg [1]: 47% |
| Cc1ccc2c(c1)c(O)c(C(=O)Nc1ccccc1)c(=O)n2C [1:46, N-phenyl-1,2-dihydro-1,6-dimethyl-4-hydroxy-2-oxo-quinoline-3-carboxamide] |  | change in vivo at 80 mg/kg [1]: 32% |
| Cc1ccc(-n2c(=O)c(C(=O)Nc3ccccc3)c(O)c3ccccc32)cc1 [1:50, N-phenyl-1,2-dihydro-4-hydroxy-1-(4-methylphenyl)-2-oxo-quinoline-3-carboxamide] |  | change in vivo at 10 mg/kg [2]: 46% |
| Cc1cc(NC(=O)c2c(O)c3ccccc3n(C)c2=O)sn1 [7:28, N-(3-methyl-5-isothiazolyl)-1,2-dihydro-4-hydroxy-1-methyl-2-oxo-quinoline-3-carboxamide] |  | change in vivo at 10 mg/kg [2]: 61% |
| CN(C(=O)c1c(N)c2ccccc2n(C)c1=O)c1ccccc1 [10:5, N-methyl-N-phenyl-4-amino-1,2-dihydro-1-methyl-2-oxo-quinoline-3-carboxamide] | significant enhancing effect |  |
| CNc1c(C(=O)N(C)c2ccccc2)c(=O)n(C)c2ccccc12 [10:6, N-methyl-N-phenyl-1,2-dihydro-1-methyl-4-methylamino-2-oxo-quinoline-3-carboxamide] | significant enhancing effect |  |
| COc1ccc(N(C)C(=O)c2c(N)c3ccccc3n(C)c2=O)cc1 [10:12, N-(4-methoxyphenyl)-N-methyl-4-amino-1,2-dihydro-1-methyl-2-oxo-quinoline-2-carboxamide] | significant enhancing effect |  |
| CN(C(=O)c1c(N)c2ccccc2n(C)c1=O)c1ccc(Cl)cc1 [10:13, N-(4-chlorophenyl)-N-methyl-4-amino-1,2-dihydro-1-methyl-2-oxo-quinoline-3-carboxamide] | significant enhancing effect |  |
| CN(C(=O)c1c(N)c2ccccc2n(C)c1=O)c1nccs1 [10:17, N-methyl-N-(2-thiazolyl)-4-amino-1,2-dihydro-1-methyl-2-oxo-quinoline-3-carboxamide] | significant enhancing effect |  |

| SMILES | significant enhancing effect in the pertussis vaccine pleurisy test [2] | further results |
| --- | --- | --- |
| Nc1c(C(=O)Nc2ccccc2)c(=O)n2c3c(cccc13)CC2 [10:20, N-phenyl-4-amino-1,2-dihydro-1,8-ethylene-2-oxo-quinoline-3-carboxamide] | significant enhancing effect |  |
| CN(C)c1ccc(NC(=O)c2c(O)c3cccc4c3n(c2=O)CCC4)cc1 [13:7, N-(4-dimethylaminophenyl)-1,2-dihydro-4-hydroxy-2-oxo-1,8-trimethylene-quinoline-3-carboxamide] |  | change in vivo at 10 mg/kg [2]: 21% |
| O=C(Nc1cnccn1)c1c(O)c2cccc3c2n(c1=O)CCC3 [14:17, N-pyrazinyl-1,2-dihydro-4-hydroxy-2-oxo-1,8-trimethylene-quinoline-3-carboxamide] |  | change in vivo at 10 mg/kg [2]: 27% |
| CN(C(=O)c1c(O)c2cccc3c2n(c1=O)CCC3)c1ccccc1 [19:1, N-methyl-N-phenyl-1,2-dihydro-4-hydroxy-2-oxo-1,8-trimethylene-quinoline-3-carboxamide] | significant enhancing effect |  |
| CN(C(=O)c1c(O)c2cccc3c2n(c1=O)CCC3)c1ccc(F)cc1 [19:2, N-(4-fluorophenyl)-N-methyl-1,2-dihydro-hydroxy-2-oxo-1,8-trimethylene-quinoline-3-carboxamide] | significant enhancing effect |  |
| C=CCn1c(=O)c(C(=O)N(C)c2ccccc2)c(O)c2ccccc21 [20:1, N-methyl-N-phenyl-1,2-dihydro-1-allyl-4-hydroxy-2-oxo-quinoline-3-carboxamide] | significant enhancing effect |  |
| CN(C(=O)c1c(O)c2ccc(Cl)cc2n(C)c1=O)c1ccccc1 [20:2, N-methyl-N-phenyl-7-chloro-1,2-dihydro-4-hydroxy-1-methyl-2-oxo-quinoline-3-carboxamide] | significant enhancing effect |  |
| CN(C)c1ccc2c(c1)c(O)c(C(=O)N(C)c1ccccc1)c(=O)n2C [20:3, N-methyl-N-phenyl-1,2-dihydro-6-dimethylamino-4-hydroxy-1-methyl-2-oxo-quinoline-3-carboxamide] | significant enhancing effect |  |
| COc1ccc2c(c1)c(O)c(C(=O)N(C)c1ccc(Cl)cc1)c(=O)n2C [20:4, N-(4-chloro-phenyl)-N-methyl-1,2-dihydro-4-hydroxy-6-methoxy-1-methyl-2-oxo-quinoline-3-carboxamide] | significant enhancing effect |  |
| CCN(CC)c1ccc(N(C)C(=O)c2c(O)c3ccccc3n(C)c2=O)cc1 [20:20, N-methyl-N-/4-diethylaminophenyl/-1,2-dihydro-4-hydroxy-1-methyl-2-oxo-quinoline-3-carboxamide] | significant enhancing effect |  |
| CN(C(=O)c1c(O)c2ccccc2n(C)c1=O)c1ccc(N2CCCC2)cc1 [20:21, N-methyl-N-/4-pyrrolidinophenyl/-1,2-dihydro-4-hydroxy-1-methyl-2-oxo-quinoline-3-carboxamide] | significant enhancing effect |  |
| COCCN(C(=O)c1c(O)c2ccccc2n(C)c1=O)c1cnccn1 [20:54, N-(2-methoxy-ethyl)-N-pyrazinyl-1,2-dihydro-4-hydroxy-1-methyl-2-oxo-quinoline-3-carboxamide] | significant enhancing effect |  |
| CN(C(=O)c1c(O)c2ccccc2n(C)c1=O)c1ncc[nH]1 [20:74, N-(2-imidazolyl)-N-methyl-1,2-dihydro-4-hydroxy-1-methyl-2-oxo-quinoline-3-carboxamide] | significant enhancing effect |  |
| Cc1cc(N(C)C(=O)c2c(O)c3ccccc3n(C)c2=O)sn1 [20:78, N-methyl-N-(3-methyl-5-isothiazolyl)-1,2-dihydro-4-hydroxy-1-methyl-2-oxo-quinoline-3-carboxamide] | significant enhancing effect |  |
| CN(C(=O)c1c(O)c2ccccc2n(C)c1=O)c1ccc(C(=O)O)cc1 [21:13, N-(4-carboxyphenyl)-N-methyl-1,2-dihydro-4-hydroxy-1-methyl-2-oxo-quinoline-3-carboxamide] | significant enhancing effect |  |
